# Test results reported in article PMC8999638, “Identification of Entry Inhibitors against Delta and Omicron Variants of SARS-CoV-2” (International Journal of Molecular Sciences, 2022).
# Values joined by “and” are separate entries in the source; they are usually repeats but may differ in a detail not shown here. Identical values can stand only once. Counter-ions that a name gives are not always drawn. Like-named read-outs stand apart in the source and are kept apart here.
# Key:
# [1] = biological target: RBD-ACE2 attachment (RBD of viral spike protein and ACE2 receptor) (Severe acute respiratory syndrome coronavirus 2, UniProt P0DTC2); assay: cell-based; parameters: species or system SARS-CoV-2; human; settings: for inhibition at 20 µM / inhibition at 100 µM: HeLa; for inhibition at 20 µM: read-out: Positive Screening RBD Attachment Assay % Inhibition (20 μM); for inhibition at 100 µM: read-out: Positive Screening RBD Attachment Assay % Inhibition (100 μM)
# NanoBiT = assay: Negative screening HiBiT assay (NanoBiT activity); format: cell-based; settings: for Negative Screening HiBiT Assay % Inhibition (20 μM): 20 μM drug; for Negative Screening HiBiT Assay % Inhibition (100 μM): 100 μM drug; for Negative Screening HiBiT Assay INHIBIT NanoBiT: >70% inhibition in 100 μM, then including >35% inhibition at 20 μM
# [2] = tested on: spike-based pseudovirus (wild type) on SmBiT-ACE2 HeLa cells; assay: microbe, parasite or virus in culture; format: cell-based, SARS-CoV-2
# SARS-CoV-2 = assay: microbe, parasite or virus in culture; format: cell-based
# in vitro = settings: African green monkey
# VERO E6 cells = settings: for CC50: read-out: VeroE6 CC50, VERO E6 cells, CellTiter-Glo
# [3] = Pseudovirus, HeLa, read-out: EC50 Pseudovirus Wild Type
# [4] = VeroE6 CC50, VERO E6 cells, CellTiter-Glo
Compound,Positive Screening RBD Attachment Assay Dose Response [1],inhibition at 20 µM [1],inhibition at 100 µM [1],Negative Screening HiBiT Assay % Inhibition (20 μM) (NanoBiT),Negative Screening HiBiT Assay % Inhibition (100 μM) (NanoBiT),Negative Screening HiBiT Assay INHIBIT NanoBiT (NanoBiT),further results
COCCOC(=O)C1=C(C)NC(C)=C(C(=O)OC(C)C)C1c1cccc([N+](=O)[O-])c1 (centres unmarked) [Nimodipine],Yes,64%,96%,79%,97%,Yes,–
CC[C@H](C)[C@H]1O[C@]2(CC[C@@H]1C)C[C@@H]1C[C@@H](C/C=C(\C)[C@@H](O[C@H]3C[C@H](OC)[C@@H](O[C@H]4C[C@H](OC)[C@@H](O)[C@H](C)O4)[C@H](C)O3)[C@@H](C)/C=C/C=C3\CO[C@@H]4[C@H](O)C(C)=C[C@@H](C(=O)O1)[C@]34O)O2 [Ivermectin],Yes,29%,68%,0%,4%,No,"EC50 ([1]; read-out: EC50 RBD Attachment): 22.8 µM; EC50 [2, 3]: 5900 nM; blocked SARS-CoV-2 infection (PRNT) (SARS-CoV-2; 10 μM): 60%; CC50 (in vitro; [4]): 11.9 µM"
CC(=O)Oc1ccccc1C(=O)Nc1ncc([N+](=O)[O-])s1 [Nitazoxanide],Yes,69%,93%,77%,95%,Yes,–
CCOC(=O)C1=C(C)NC(C)=C(C(=O)OC)C1c1cccc(Cl)c1Cl (centres unmarked) [Felodipine],Yes,63%,96%,88%,99%,Yes,–
Clc1ccc(COC(Cn2ccnc2)c2ccc(Cl)cc2Cl)c(Cl)c1 (centres unmarked) [Miconazole nitrate],–,–,–,3%,12%,No,CC50 (VERO E6 cells): 16.9 µM
CN(C)c1ccc(C(=C2C=CC(=[N+](C)C)C=C2)c2ccc(N(C)C)cc2)cc1 [Crystal Violet],Yes,73%,99%,17%,86%,Yes,–
CCCCCCCCCCCCCCCC[N+](C)(C)CCN(Cc1ccc(OC)cc1)c1ncccn1 [Thonzonium Bromide],Yes,93%,99%,36%,52%,Yes,–
Clc1ccc(COC(Cn2ccnc2)c2ccc(Cl)cc2Cl)c(Cl)c1 (centres unmarked) [Miconazole],–,–,–,6%,15%,No,CC50 (in vitro; [4]): 14 µM
OCCOc1ccc(/C(=C(/CCCl)c2ccccc2)c2ccccc2)cc1 [Ospemifene],Yes,39%,68%,3%,8%,No,EC50 ([1]; EC50 RBD Attachment): 56.2 µM; Cytotoxicity to VeroE6 cells (VERO E6 cells): not toxic; CC50 (in vitro; VeroE6 CC50): > 100 µM
"CC(C)(C)c1nc(-c2cccc(NS(=O)(=O)c3c(F)cccc3F)c2F)c(-c2ccnc(N)n2)s1 [Dabrafenib (GSK2118436), Dabrafenib]",Yes,85%,96%,88%,97%,Yes,–
O=C1CCc2ccc(OCCCCN3CCN(c4cccc(Cl)c4Cl)CC3)cc2N1 [Aripiprazole],–,–,–,13%,21%,No,CC50 (in vitro; [4]): 14 µM
CC1(C)CCC(CN2CCN(c3ccc(C(=O)NS(=O)(=O)c4ccc(NCC5CCOCC5)c([N+](=O)[O-])c4)c(Oc4cnc5[nH]ccc5c4)c3)CC2)=C(c2ccc(Cl)cc2)C1 [ABT-199],Yes,51%,96%,0%,43%,No,EC50 [1]: 39.1 µM; CC50 (in vitro; [4]): 17.3 µM
C[C@@H]1CCO[C@H]2Cn3cc(C(=O)NCc4ccc(F)cc4F)c(=O)c(O)c3C(=O)N12 [Dolutegravir sodium],Yes,> 70%,96%,1%,62%,No,"EC50 [1]: 14.6 µM; EC50 ([2]; Pseudovirus, HeLa, read-out: EC50 (nM) (Wild type)): 22.9 nM; EC50 [2, 3]: 40 nM; EC50 (SARS-CoV-2; Severe acute respiratory syndrome coronavirus 2, Vero C1008, 120 h, read-out: EC50 SARS-CoV-2 PRNT): 4.2 µM; Cytotoxicity to VeroE6 cells (VERO E6 cells; VeroE6 cells): not toxic; CC50 (in vitro; [4]): > 100 µM"
COC(=O)C1=C(C)NC(C)=C(C(=O)OCCN(C)Cc2ccccc2)C1c1cccc([N+](=O)[O-])c1 (centres unmarked) [Nicardipine hydrochloride],Yes,58%,86%,64%,88%,Yes,–
Nc1ccc(/N=N/c2ccccc2)c(N)n1 [Phenazopyridine hydrochloride],Yes,52%,91%,48%,83%,Yes,–
O=C1C(O)=C([C@H]2CC[C@H](c3ccc(Cl)cc3)CC2)C(=O)c2ccccc21 [Atovaquone],Yes,39%,95%,54%,96%,Yes,–
CCCCc1oc2ccc(NS(C)(=O)=O)cc2c1C(=O)c1ccc(OCCCN(CCCC)CCCC)cc1 [Dronedarone hydrochloride],Yes,41%,93%,21%,86%,Yes,–
Gramicidin,Yes,–,–,0%,35%,No,Positive Screening RBD Attachment Assay % Inhibition (100 μM) [1]: 95%; EC50 ([1]; read-out: EC50 RBD Attachment): 5.3 µM; EC50 ([2]; read-out: EC50 Pseudovirus Wild Type): ~1200 nM and 1200 nM; CC50 (VERO E6 cells): 3.9 µM
CCCC(=O)OCOC(=O)C1=C(C)NC(C)=C(C(=O)OC)C1c1cccc(Cl)c1Cl (centres unmarked) [Clevidipine butyrate],Yes,–,–,79%,93%,Yes,Positive Screening RBD Attachment Assay % Inhibition (20 μM) [1]: 69%; Positive Screening RBD Attachment Assay % Inhibition (100 μM) [1]: 93%
